Assay results as given in article PMC9499463, “Potent Chlorambucil-Platinum(IV) Prodrugs” (International Journal of Molecular Sciences, 2022).

Experiments:
[1] = tested on: ADDP ovarian (cisplatin-resistant A2780 clone); experiment: MTT growth inhibition assay, 72 h; assay type: cell-based, human; settings: MTT, 72 h
[2] = Reduction experiments with ascorbic acid by 1H-NMR and 1D-195Pt-NMR; assay type: physicochemical; settings: 10 mM AsA, 10 mM PBS (~7.4 pH), D2O, 37 °C, 1H-NMR
Method: Intracellularly, a platinum(IV) complex is reduced into its platinum(II) congener and axial ligands in the presence of biological reducing agents such as AsA or glutathione. This report followed the reduction in PCLB, 5CLB, and 56CLB using ^1H-NMR and 1D-^195Pt-NMR spectroscopy. The method used for the reduction experiments was adapted from the literature with minor modifications. A total of 10 mM PBS (~7.4 pH) was selected as media to mimic physiological conditions, while 10 mM AsA was used as the biological reducing agent. Prior to the reduction experiments, a control was considered where each metal complex was dissolved with PBS in D2O. 1D-^195Pt-NMR was employed within the regions of −2800 and 400 ppm (30 min per region) at 37 °C. Typically, our platinum(II) complexes resonate within the −2800 ppm region (Figures S1–S3), while their platinum(IV) derivatives resonate around the 400 ppm region (Figures S4–S6). A control was required to ensure that the PBS would not interfere in the reduction process of the complexes. From the preliminary 1D-^195Pt-NMR spectra obtained (Figure 11), the state of all complexes was unchanged, and no sign of reduction was observed.
The reduction property of PCLB was monitored for 1 h by ^1H-NMR spectroscopy at 37 °C (Figure 12). Utilizing the resonances of the phenanthroline protons (H2 and H9; H4 and H7; H5 and H6; H3 and H8) from both platinum(II) and (IV) species as a qualitative measure of […], and considering that the resonances of these phenanthroline protons from both platinum(II) and (IV) species were almost equivalent, it is estimated that 40–50% reduction occurs within 10 min. […] A notable observation from the ^1H-NMR experiments is the movement of resonances, particularly the upfield shift of the phenanthroline protons and the downfield shift of the aromatic protons of CLB (Figure 12).
The reduction behavior of PCLB, 5CLB, and 56CLB was monitored using ^1H-NMR and 1D-^195Pt-NMR spectroscopy. A sequence of ^1H-NMR experiments was carried out for 1 h at 37 °C, followed by 1D-^195Pt-NMR within the regions of −2800 and 400 ppm. An amount of 10 mM PBS (~7.4 pH) was transferred to a vial and reduced to dryness through rotary evaporation. AsA (~1 mg) was combined with the metal complex (~5 mg) and transferred to the vial containing the dried PBS. A total of 600 µL of D2O was then added to the vial to dissolve the complex, AsA and the PBS together. Each reaction was followed at 37 °C until the complete reduction in the prodrugs.

[3] = Stability in solvent systems by HPLC; assay type: physicochemical; settings: room temperature
Method: The stability of PCLB, 5CLB, and 56CLB was evaluated by HPLC. The complexes were tested in three solvent systems, 10 mM PBS (~7.4 pH), 0.9% NaCl and d.i.H2O/DMSO (50:50). This process was followed for 1 h at room temperature for each complex in each solvent system (Table 3 and Figure S32). However, it is noteworthy that when these complexes are left in solution for more extended periods, reduction to the corresponding platinum(II) species appears inevitable (Figure S33). This is likely influenced by the nature of the coordinated CLB ligand, which is highly susceptible to rapid hydrolysis due to its functional group.
The stability of PCLB, 5CLB, and 56CLB was monitored using an Agilent Technologies 1260 Infinity instrument equipped with a Phenomenex Onyx^TM Monolithic C18-reverse phase column (100 × 4.6 mm, 5 µm pore size). The mobile phase consisted of solvents, A (0.06% TFA in d.i.H2O) and B (0.06% TFA in CH3CN/d.i.H2O (90:10)). An injection volume of 5 µL was utilized and eluted with a 0–100% linear gradient over 15 min with a flow rate of 1 mL/min, at the set wavelengths of 214 and 254 nm. Each complex was dissolved separately in three solvent systems including, 10 mM phosphate-buffered saline (PBS) at ~7.4 pH, 0.9% sodium chloride (NaCl) or standard saline solution and d.i.H2O/DMSO (50:50). Each HPLC run per solvent system was followed for 1 h at room temperature.

[4] = tested on: non-tumor-derived MCF10A breast line; experiment: MTT growth inhibition assay, 72 h; assay type: cell-based, human
MIA pancreas = experiment: MTT growth inhibition assay, 72 h; assay type: cell-based, human; settings: MTT, 72 h
A431 skin = experiment: MTT growth inhibition assay, 72 h; assay type: cell-based, human

Row | SMILES | GI50 [1] [nM] | time to reach 50% reduction [2] | HPLC Peak Areas at 254 nm ([3]; 0.9% NaCl, 30 min) [%] | HPLC Peak Areas at 254 nm ([3]; 0.9% NaCl, 1 h) [%] | HPLC Peak Areas at 254 nm ([3]; PBS (~7.4 pH), 30 min) [%] | HPLC Peak Areas at 254 nm ([3]; PBS (~7.4 pH), 1 h) [%] | HPLC Peak Areas at 254 nm ([3]; d.i.H2O/DMSO (50:50), 30 min) [%] | HPLC Peak Areas at 254 nm ([3]; d.i.H2O/DMSO (50:50), 1 h) [%] | GI50 [4] [nM] | GI50 (MIA pancreas) [nM] | GI50 (A431 skin) [nM] | state of the complex at 1 h [2] | time at which the complex started reducing [2] [min]
1 | Cc1cc2cccnc2c2ncccc12.N[C@H]1CCCC[C@@H]1N.O=C([O-])CCCc1ccc(N(CCCl)CCCl)cc1.O=[N+]([O-])[O-].O=[N+]([O-])[O-].[OH-].[Pt+4] [5CLB, [Pt^IV(5-methyl-1,10-phenanthroline)(S,S-DACH)(CLB)(OH)](NO3)2] | 26 ± 0.0064 | approximately 5 min | 73.9 | 72.4 | 68.8 | 67.3 | 76.5 | 75.8 | 22 ± 0.0045 | 34 ± 0.005 | 90 ± 0.015 |  | 
2 | Cc1c(C)c2cccnc2c2ncccc12.N[C@H]1CCCC[C@@H]1N.O=C([O-])CCCc1ccc(N(CCCl)CCCl)cc1.O=[N+]([O-])[O-].O=[N+]([O-])[O-].[OH-].[Pt+4] [56CLB, [Pt^IV(5,6-dimethyl-1,10-phenanthroline)(S,S-DACH)(CLB)(OH)](NO3)2] | 10 ± 0.0028 | approximately 5 min | 84.6 | 82.5 | 78.2 | 75.2 | 85.0 | 84.3 | 7 ± 0.004 | 11 ± 0.003 | 34 ± 0.0037 |  | 
3 | O=C(CCCc1ccc(N(CCCl)CCCl)cc1)[O][Pt-2]12([OH])([NH2+][C@H]3CCCC[C@@H]3[NH2+]1)[n+]1cccc3ccc4ccc[n+]2c4c31.O=[N+]([O-])[O-].O=[N+]([O-])[O-] [PCLB, [Pt^IV(1,10-phenanthroline)(S,S-DACH)(CLB)(OH)](NO3)2] | 290 ± 0.037 |  | 89.4 | 87.5 | 85.0 | 83.1 | 93.2 | 92.4 | 300 ± 0.045 | 190 ± 0.032 | 510 ± 0.1 | almost reduced to its platinum(II) congener | 5
